For assay [1], the system named is KARPAS422 human B cell lymphoma cell. Description: Cell proliferation, KARPAS422, 7 day treatment (WST-8). Format: cell-based. The following applies: Homo sapiens, KARPAS-422, 168 h, 7 day treatment, read-out: Karpas Cell line. In short, it runs like this: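 Read-out was WST-8 absorbance at 450 nm after 1-4 h with reagent, taken after 7-day compound treatment (serial dilutions, 37 °C, 5% CO2) of 2 000-3 000 KARPAS422 cells per well. IC50 fitted by nonlinear regression on DMSO-normalized values.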
For orientation: Formazan colour is commonly taken as a measure of viable cells.

For another assay, the system named is Pfeiffer cell line. Put plainly: Anti-proliferative activity, Pfeiffer cell line, 7 day treatment. It counts as cell-based. The following applies: Homo sapiens, 168 h, 7 day treatment, read-out: Pfeiffer Cell line. In short, it runs like this:
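Cells seeded at 2 000-3 000 per well were treated with serially diluted compounds for 7 days at 37° C, 5% CO2. Growth was measured by WST-8 assay read at 450 nm after 1-4 h reagent incubation. Readings were normalized to DMSO-treated cells and IC50 values derived by nonlinear regression.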

The mark [2] stands for this setting: anti-proliferative IC50, Karpas 422 cell line.
[3] abbreviates: anti-proliferative IC50, Pfeiffer cell line.
[4] abbreviates: anti-proliferative IC50 class, Karpas 422 cell line.
Where [5] appears, read: anti-proliferative IC50 class, Pfeiffer cell line.

Like-named read-outs stand apart in the source and are kept apart here.

As to `O=C1c2ncn3c(NCc4c(F)ccc5c4CCO5)ncc(c23)-c2ccc(C(F)(F)F)cc2CN1CC(F)(F)F` [compound 83, 12-(((5-fluoro-2,3-dihydrobenzofuran-4-yl)methyl)amino)-4-(2,2,2-trifluoroethyl)-7-(trifluoromethyl)-4,5-dihydro-3H-2,4,11,12a-tetraazabenzo[4,5]cycloocta[1,2,3-cd]inden-3-one], the IC50 came to 6.32 nM in assay [1] (setting [2]) and 0.304 nM in the assay on Pfeiffer cell line (setting [3]).
The corresponding values for `CS(=O)(=O)c1ccc2c(c1)NC(=O)c1ncn3c(NCc4c(F)ccc5c4CCO5)ncc-2c13` [compound 5, 11-(((5-fluoro-2,3-dihydrobenzofuran-4-yl)methyl)amino)-6-(methylsulfonyl)-2,4,10,11a-tetraazadibenzo[cd,f]azulen-3(4H)-one] are 32.2 nM and 18.1 nM.
The matching figures for `O=C1NCc2cc(C(F)(F)F)ccc2-c2cnc(NCc3c(F)ccc4c3CCO4)n3cnc1c23` [compound 19, 12-(((5-fluoro-2,3-dihydrobenzofuran-4-yl)methyl)amino)-7-(trifluoromethyl)-4,5-dihydro-3H-2,4,11,12a-tetraazabenzo[4,5]cycloocta[1,2,3-cd]inden-3-one]: 9.6 nM and 0.79 nM.
For the compound `O=C1OCc2ccccc2-c2cnc(NCc3c(F)ccc4c3CCO4)n3cnc1c23` [compound 6, 12-(((5-fluoro-2,3-dihydrobenzofuran-4-yl)methyl)amino)-3H,5H-4-oxa-2,11,12a-triazabenzo[4,5]cycloocta[1,2,3-cd]inden-3-one], the values for the IC50 (in assay [1] (setting [2]); in the assay with Pfeiffer cell line (setting [3])) were 1.98 nM and 0.22 nM, respectively.
`Cc1cc2c(cn1)-c1cnc(NCc3c(F)ccc4c3CCO4)n3cnc(c13)C(=O)N(CC(F)F)C2` [E 9, 4-(2,2-difluoroethyl)-12-(((5-fluoro-2,3-dihydrobenzofuran-4-yl)methyl)amino)-7-methyl-4,5-dihydro-3H-2,4,8,11,12a-pentaazabenzo[4,5]cycloocta[1,2,3-cd]inden-3-one]: the IC50 (in assay [1] (setting [4]); in the assay on Pfeiffer cell line (setting [5])) was < 10 nM in each case.
In the case of `CN1CCC(CN2Cc3cc(C(F)(F)F)ncc3-c3cnc(NCc4c(F)ccc5c4CCO5)n4cnc(c34)C2=O)CC1` [compound 38, 12-(((5-fluoro-2,3-dihydrobenzofuran-4-yl)methyl)amino)-4-((1-methylpiperidin-4-yl)methyl)-7-(trifluoromethyl)-4,5-dihydro-3H-2,4,8,11,12a-pentaazabenzo[4,5]cycloocta[1,2,3-cd]inden-3-one], the IC50 in assay [1] (setting [2]) worked out at 15.7 nM; with Pfeiffer cell line (setting [3]), 3.22 nM.
For the compound `CCc1ccc2c(n1)CN(CC(F)F)C(=O)c1ncn3c(NCc4c(F)ccc5c4CCO5)ncc-2c13` [E 13, 4-(2,2-difluoroethyl)-7-ethyl-12-(((5-fluoro-2,3-dihydrobenzofuran-4-yl)methyl)amino)-4,5-dihydro-3H-2,4,6,11,12a-pentaazabenzo[4,5]cycloocta[1,2,3-cd]inden-3-one], the IC50 (in assay [1] (setting [4]); in the assay on Pfeiffer cell line (setting [5])) was < 10 nM each time.
Turning to `Fc1ccc2c(c1CNc1ncc3c4c(ncn14)COCc1ncccc1-3)CCO2` [Cpd. No. 2, N-((5-fluoro-2,3-dihydrobenzofuran-4-yl)methyl)-3H,5H-4-oxa-2,6,11,12a-tetraazabenzo[4,5]cycloocta[1,2,3-cd]inden-12-amine], the IC50 (in assay [1] (setting [2]); in the assay with Pfeiffer cell line (setting [3])) was > 100 nM throughout.
Regarding `Cc1onc2c1Cc1cc(C(F)(F)F)ncc1-c1cnc(NCc3c(F)ccc4c3CCO4)n3cnc-2c13` [E 35, N-((5-fluoro-2,3-dihydrobenzofuran-4-yl)methyl)-5-methyl-8-(trifluoromethyl)-6H-4-oxa-2,3,9,12,13a-pentaazabenzo[4,5]cyclopenta[7,8]cycloocta [1,2,3-cd]inden-13-amine], the IC50 (in assay [1] (setting [4]); in the assay on Pfeiffer cell line (setting [5])) was 10 to 100 nM each time.

For the origin of these results see patent publication US12145944B2, “Imidazopyrimidines as EED inhibitors and the use thereof” (THE REGENTS OF THE UNIVERSITY OF MICHIGAN, priority 2019, dated 2024).
